# Data as given in patent US20240335497A1, “PULSE PROTEIN-BASED COMPOSITION FOR ACTIVATING THE SYNTHESIS OF FGF19” (ROQUETTE FRERES, priority 2021, published 2024).
# System: FGF19
# Assay: Expression of FGF19 mRNA in HT29 cells by RT-qPCR
# Format: cell-based, human
# Conditions: 6 h; for increase of expression of the FGF19 gene compared to control (carrier=DMSO): Example 5, HT29 cells; for increase of expression of the FGF19 gene compared with control (carrier=DMSO): Example 6, HT29 cells
# Excerpt: For cell cultures, the HT29 (ECACC 91072201), HT29-MTX and Caco-2 lines derived from a human colorectal adenocarcinoma are used, conventionally used as cell lines representative of human enterocytes. The cells are systematically cultured in Dulbecco's Modified Eagle Medium (DMEM): 4.5 g/L of glucose supplemented with 1% of sodium pyruvate, 1% of penicillin-streptomycin and 10% of decomposed fetal-bovine serum (FBS) (Eurobio, Les Ulis, France). For the 12-well and 96-well plate experiments, the HT29 cells were seeded with a density of 7.5×10^4 cells/cm^2 with a medium changed every 2 days and the cells were exposed to different experimental conditions 2 days after confluence with a depleted complete medium in FBS. For the 12-well plates (Costar®, Cambridge, MA), Caco-2 and HT29-MTX cells were seeded in a ratio of 1:1 with a density of 2.5×10^4 cells/cm^2. The cells were cultured for 14 days in a complete medium to allow differentiation. The medium was changed in the two compartments every two days until exposure to the complete medium was depleted in the FBS. The integrity of the cellular monolayer was evaluated by measuring the transepithelial electrical resistance (TEER) using a Millicell-ERS (Millipore Corp., Billerica, MA). The cell culture was sourced from Dutscher (Issy-les-Moulineaux, France), unless specified otherwise.
# The various conditions of the carrier as PD were dissolved in PBS and the agonists were dissolved in DMSO. After exposure, the cell supernatants were stored at −80° C. for the measurements of the secretion of FGF19 proteins, and the cell monolayers were maintained at −80° C. until total extraction of the RNA.
# The effect of this exposure is measured by quantifying the messenger RNA of the FGF19 using the following protocol: the expression of the target genes was evaluated by quantifying their mRNA level in the cells by RT-qPCR. The total RNA was isolated using the TRI-Reagent solution (Sigma Aldrich). First-strand complementary DNA was synthesized from 1 μg of total RNA using the TAKARA Prime ScriptMC RT reagent kit (TAKARA Bio, Saint-Germain-en-Laye, France). The qPCR tests were carried out using the SYBR® Premix Ex-Taq™ kit (TAKARA Bio) on Rotor-Gene™ 6000 (Corbet Research, Mortlake, Australia). The mRNA levels of the human TATA binding protein (TBP) were used to normalize the data.
# [FIG. 1] summarizes the results obtained. The HT29 cells were exposed to the various PDs alone or in combination with an FXR agonist to determine their potential capacity to increase the expression of the FGF19 gene. […]
# The capacity of the RQ3 and RQ7 digestates to increase the level of expression of the FGF19 mRNA and also the production and secretion of proteins was then evaluated. […]
smiles,measurement,setting,value
"CC(C)c1onc(-c2c(Cl)cccc2Cl)c1COc1ccc(C=Cc2cccc(C(=O)O)c2)c(Cl)c1 [GW4064, 3-(2,6-Dichlorophenyl)-4-(3′-carboxy-2-chlorostilben-4-yl)oxymethyl-5-isopropylisoxazole]",increase of expression of the FGF19 gene compared to control (carrier=DMSO),GW4064 0.1 μM alone,2 times
same,increase of expression of the FGF19 gene compared to control (carrier=DMSO),GW4064 1 μM alone,6.2 times
same,increase of expression of the FGF19 gene compared with control (carrier=DMSO),GW4064 0.1 μM alone,2.3 times
same,increase of expression of the FGF19 gene compared with control (carrier=DMSO),GW4064 1 μM alone,6.6 times
